Holding throughout (type): cell-based, human
Experiment [1] concerns HTT mRNA. The experiment can be described thus: Splicing RT-qPCR gene panel, HTT canonical junction (CJ) mRNA. As to conditions: Tables 4A/4B, read-out: HTT (IC50, decrease in CJ mRNA, gene panel). In a few lines: (§1)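 A673 or K562 cells treated 24 h at 37° C. with an 11-point 3-fold dilution series (top 10 uM, ≤0.25% DMSO). Lysates analysed by one-step RT-qPCR for canonical exon-exon junction transcripts, normalized to GAPDH, GUSB or PPIA and DMSO control (2^(−ΔΔCt)), then converted to percentage response.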
A general note: Real-time PCR tracks product formation cycle by cycle.

Experiment [2] concerns HTT mRNA. In words: Splicing RT-qPCR assay, HTT canonical (CJ) and alternative (AJ) junction mRNA. The following applies: A673 or K562 cells, 24 hours compound treatment; for IC50: read-out: HTT CJ (IC50, decrease in canonical junction mRNA); for AC50: read-out: HTT AJ (AC50, increase in alternative junction mRNA). In a few lines: (§2)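 Read-out is the abundance of canonical-junction versus new alternative-exon-junction mRNA, determined by real-time qPCR after cDNA synthesis and normalized to a housekeeping gene. It is measured in A673 or K562 cells exposed to compounds for 24 h, top dose 10 uM.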

Experiment [3] has as its system MYB mRNA. In words: Splicing RT-qPCR assay, MYB canonical (CJ) and alternative (AJ) junction mRNA. The following applies: for AC50: read-out: MYB AJ (AC50, increase in alternative junction mRNA). In a few lines: as §2
The test system of experiment [4] is Target C mRNA. The experiment can be described thus: Splicing RT-qPCR gene panel, Target C canonical junction (CJ) mRNA. The following applies: Tables 4A/4B, read-out: Target C (IC50, decrease in CJ mRNA, gene panel). The essentials: as §1
Experiment [5] deals with SMN2 mRNA. In words: Splicing RT-qPCR gene panel, SMN2 canonical junction (CJ) mRNA. As to conditions: Homo sapiens, Tables 4A/4B, read-out: SMN2 (IC50, decrease in CJ mRNA, gene panel). The essentials:
as §1

[6] abbreviates: Homo sapiens, 24 h, A673 or K562 cells, 24 hours compound treatment, RT-qPCR.
The mark [7] stands for this setting: Homo sapiens, 24 h, A673 or K562 cells, 24 hours compound treatment, RT-qPCR, read-out: MYB CJ (IC50, decrease in canonical junction mRNA).
The mark [8] stands for this setting: Homo sapiens, Tables 4A/4B, canonical junction qPCR panel, read-out: MYB (IC50, decrease in CJ mRNA, gene panel).

Where two headings read alike, the source gives them in different places.

Regarding `CN[C@H]1CCN(c2ccc(C(=O)Nc3cn4cc(C)nc4c(OC)n3)c3nn(CCOC)cc23)C1` [Compound 432, (S)—N-(8-methoxy-2-methylimidazo[1,2-a]pyrazin-6-yl)-2-(2-methoxyethyl)-4-(3-(methylamino)pyrrolidin-1-yl)-2H-indazole-7-carboxamide], the IC50 in experiment [1] (Homo sapiens) was above 10000 nM; in experiment [2] (Homo sapiens, 24 h), above 10000 nM; in experiment [3] (setting [7]), below 100 nM; in experiment [3] (setting [8]) it was 100 to 1000 nM; in experiment [4] (Homo sapiens), above 10000 nM; in experiment [5], below 100 nM. Further, the AC50 in experiment [2] (Homo sapiens) is above 10000 nM; in experiment [3] (setting [6]) it was below 100 nM.
Take `CCOc1nc(NC(=O)c2ccc(N3CC[C@H](NC)C3)c3cn(C)nc23)cn2cc(C)nc12` [Compound 434]: the IC50 in experiment [1] (Homo sapiens) is above 10000 nM; in experiment [2] (Homo sapiens, 24 h), 1000 to 10000 nM; in experiment [3] (setting [7]), 100 to 1000 nM; in experiment [3] (setting [8]), below 100 nM; in experiment [4] (Homo sapiens) it was above 10000 nM; in experiment [5] it was below 100 nM. For the same compound, the AC50 in experiment [2] (Homo sapiens) and in experiment [3] (setting [6]) was 1000 to 10000 nM each time.
In the case of `Cc1cn2cc(NC(=O)c3ccc(N4CCNCC4)c4nnn(C)c34)cc(F)c2n1` [Compound 435, N-{8-fluoro-2-methylimidazo[1,2-a]pyridin-6-yl}-3-methyl-7-(piperazin-1-yl)-1,2,3-benzotriazole-4-carboxamide], the IC50 was 1000 to 10000 nM in experiment [1] (Homo sapiens); above 10000 nM in experiment [2] (Homo sapiens, 24 h); above 10000 nM in experiment [3] (setting [7]); 100 to 1000 nM in experiment [3] (setting [8]); 1000 to 10000 nM in experiment [4] (Homo sapiens); below 100 nM in experiment [5]. Moreover, the AC50 in experiment [2] (Homo sapiens) and in experiment [3] (setting [6]) was above 10000 nM in each case.
With `Cc1cn2cc(NC(=O)c3ccc(N4CCNCC4)c4c3nnn4C)cc(F)c2n1` [Compound 436, N-{8-fluoro-2-methylimidazo[1,2-a]pyridin-6-yl}-1-methyl-7-(piperazin-1-yl)-1,2,3-benzotriazole-4-carboxamide], the IC50 in experiment [1] (Homo sapiens) is above 10000 nM; in experiment [2] (Homo sapiens, 24 h), above 10000 nM; in experiment [3] (setting [7]) it was 100 to 1000 nM; in experiment [3] (setting [8]), above 10000 nM; in experiment [4] (Homo sapiens) it was above 10000 nM; in experiment [5], above 10000 nM. For the same compound, the AC50 in experiment [2] (Homo sapiens) was above 10000 nM; in experiment [3] (setting [6]) it was 100 to 1000 nM.
As to `CCn1cc2c(N3CC[C@H](NC)C3)ccc(C(=O)Nc3cc(F)c4nc(C)cn4c3)c2n1` [Compound 437, (S)-2-ethyl-N-(8-fluoro-2-methylimidazo[1,2-a]pyridin-6-yl)-4-(3-(methylamino)pyrrolidin-1-yl)-2H-indazole-7-carboxamide], the IC50 is above 10000 nM in experiment [1] (Homo sapiens); 1000 to 10000 nM in experiment [2] (Homo sapiens, 24 h); below 100 nM in experiment [3] (setting [7]); 100 to 1000 nM in experiment [3] (setting [8]); above 10000 nM in experiment [4] (Homo sapiens); below 100 nM in experiment [5]. The AC50 in experiment [2] (Homo sapiens) was 1000 to 10000 nM; in experiment [3] (setting [6]), below 100 nM.
As for `CN[C@@H]1CCN(c2ccc(C(=O)Nc3cn4cc(C)nc4c(OC)n3)c3nn(C)cc23)C1` [Compound 441], the IC50 was 1000 to 10000 nM in experiment [1] (Homo sapiens); 1000 to 10000 nM in experiment [2] (Homo sapiens, 24 h); below 100 nM in experiment [3] (setting [7]); below 100 nM in experiment [3] (setting [8]); above 10000 nM in experiment [4] (Homo sapiens); below 100 nM in experiment [5]. In addition, the AC50 in experiment [2] (Homo sapiens) is 1000 to 10000 nM; in experiment [3] (setting [6]), below 100 nM.
On to `CN[C@H]1CCN(c2ccc(C(=O)Nc3cn4cc(C)nc4c(OC)n3)c3nn(C)cc23)C1` [Compound 442], for which the IC50 was 1000 to 10000 nM in experiment [1] (Homo sapiens); 1000 to 10000 nM in experiment [2] (Homo sapiens, 24 h); 100 to 1000 nM in experiment [3] (setting [7]); below 100 nM in experiment [3] (setting [8]); above 10000 nM in experiment [4] (Homo sapiens); below 100 nM in experiment [5]. The AC50 is above 10000 nM in experiment [2] (Homo sapiens) and 100 to 1000 nM in experiment [3] (setting [6]).
For the compound `CCNC1CCN(c2ccc(C(=O)Nc3cc(F)c4nc(C)sc4c3)c3nn(C)cc23)CC1` [Compound 443, 4-[4-(ethylamino)piperidin-1-yl]-N-(4-fluoro-2-methyl-1,3-benzothiazol-6-yl)-2-methylindazole-7-carboxamide], the IC50 in experiment [1] (Homo sapiens) is 1000 to 10000 nM; in experiment [2] (Homo sapiens, 24 h), 1000 to 10000 nM; in experiment [3] (setting [7]), below 100 nM; in experiment [3] (setting [8]), 100 to 1000 nM; in experiment [4] (Homo sapiens), above 10000 nM; in experiment [5], below 100 nM. The figures for the AC50 in experiment [2] (Homo sapiens) and in experiment [3] (setting [6]) were 1000 to 10000 nM and below 100 nM, respectively.
With `Cc1cn2cc(NC(=O)c3ccc(N4CCNCC4)c4cn(C)nc34)c(C#N)cc2n1` [Compound 444, N-{7-cyano-2-methylimidazo[1,2-a]pyridin-6-yl}-2-methyl-4-(piperazin-1-yl) indazole-7-carboxamide], the IC50 in experiment [1] is 1000 to 10000 nM; in experiment [2], 1000 to 10000 nM; in experiment [3] (A673 or K562 cells, 24 hours compound treatment, RT-qPCR, read-out: MYB CJ (IC50, decrease in canonical junction mRNA)) it was 100 to 1000 nM; in experiment [3] (Tables 4A/4B, canonical junction qPCR panel, read-out: MYB (IC50, decrease in CJ mRNA, gene panel)), below 100 nM; in experiment [4], 1000 to 10000 nM; in experiment [5] it was below 100 nM. In addition, the AC50 was above 10000 nM in experiment [2] (Homo sapiens) and 100 to 1000 nM in experiment [3] (A673 or K562 cells, 24 hours compound treatment, RT-qPCR).
As to `Cc1cn2cc(NC(=O)c3ccc(N4CCNC[C@@H]4C)c4cn(C)nc34)cc(F)c2n1` [Compound 446, N-{8-fluoro-2-methylimidazo[1,2-a]pyridin-6-yl}-2-methyl-4-[(2S)-2-methylpiperazin-1-yl]indazole-7-carboxamide], the half-inhibitory concentration (IC50) in experiment [1] (Homo sapiens) is 1000 to 10000 nM; in experiment [2] (Homo sapiens, 24 h), 1000 to 10000 nM; in experiment [3] (setting [7]), 100 to 1000 nM; in experiment [3] (setting [8]), 100 to 1000 nM; in experiment [4] (Homo sapiens) it was 1000 to 10000 nM; in experiment [5], below 100 nM. Also, the AC50 in experiment [2] (Homo sapiens) fell in the range of 1000 to 10000 nM; in experiment [3] (setting [6]), 100 to 1000 nM.
Turning to `Cc1cn2cc(NC(=O)c3ccc(N4CCNC[C@H]4C)c4cn(C)nc34)cc(F)c2n1` [Compound 447, N-{8-fluoro-2-methylimidazo[1,2-a]pyridin-6-yl}-2-methyl-4-[(2R)-2-methylpiperazin-1-yl]indazole-7-carboxamide], the IC50 in experiment [1] (Homo sapiens) is 1000 to 10000 nM; in experiment [2] (Homo sapiens, 24 h), 100 to 1000 nM; in experiment [3] (setting [7]), below 100 nM; in experiment [3] (setting [8]), 100 to 1000 nM; in experiment [4] (Homo sapiens), 1000 to 10000 nM; in experiment [5] it was below 100 nM. For the same compound, the AC50 in experiment [2] (Homo sapiens) is 100 to 1000 nM; in experiment [3] (setting [6]) it was below 100 nM.
As to `CNC1CCN(c2ccc(C(=O)Nc3cc(F)c4nc(C)cn4c3)c3nn(C)cc23)CC1` [Compound 448, N-{8-fluoro-2-methylimidazo[1,2-a]pyridin-6-yl}-2-methyl-4-[4-(methylamino)piperidin-1-yl]indazole-7-carboxamide], the IC50 in experiment [1] (Homo sapiens) was 100 to 1000 nM; in experiment [2] (Homo sapiens, 24 h) it was 100 to 1000 nM; in experiment [3] (setting [7]), below 100 nM; in experiment [3] (setting [8]) it was below 100 nM; in experiment [4] (Homo sapiens), 1000 to 10000 nM; in experiment [5] it was below 100 nM. In addition, the figures for the AC50 in experiment [2] (Homo sapiens) and in experiment [3] (setting [6]) were 1000 to 10000 nM and below 100 nM, respectively.
As for `CCn1cc2c(N3CCN(C)CC3)ccc(C(=O)Nc3cc(F)c4nc(CO)oc4c3)c2n1` [Compound 450, 2-ethyl-N-[4-fluoro-2-(hydroxymethyl)-1,3-benzoxazol-6-yl]-4-(4-methylpiperazin-1-yl) indazole-7-carboxamide], the half-inhibitory concentration (IC50) was 100 to 1000 nM in experiment [1] (Homo sapiens); above 10000 nM in experiment [2] (Homo sapiens, 24 h); above 10000 nM in experiment [3] (setting [7]); below 100 nM in experiment [3] (setting [8]); 1000 to 10000 nM in experiment [4] (Homo sapiens); below 100 nM in experiment [5]. In addition, the AC50 in experiment [2] (Homo sapiens) and in experiment [3] (setting [6]) was above 10000 nM in each case.
`Cc1cn2cc(NC(=O)c3ccc(N4CCNCC4)c4cn(C)nc34)c(=O)n(C)c2n1` [Compound 451, N-{2,8-dimethyl-7-oxoimidazo[1,2-a]pyrimidin-6-yl}-2-methyl-4-(piperazin-1-yl) indazole-7-carboxamide]: the IC50 was above 10000 nM in experiment [1] (Homo sapiens); above 10000 nM in experiment [2] (Homo sapiens, 24 h); 1000 to 10000 nM in experiment [3] (setting [7]); above 10000 nM in experiment [3] (setting [8]); above 10000 nM in experiment [4] (Homo sapiens); above 10000 nM in experiment [5]. In addition, the concentration at half-maximal activity (AC50) in experiment [2] (Homo sapiens) was above 10000 nM; in experiment [3] (setting [6]), 1000 to 10000 nM.

The IC50 is the concentration that inhibits the measured activity by half. Usually AC50 stands for the concentration giving half of the maximal activity seen.

For the origin of these results see US20250154169A1, “COMPOUNDS AND METHODS FOR MODULATING SPLICING” (REMIX THERAPEUTICS INC., priority 2021, published 2025).
